What was measured:
[1] = target: T1, recombinant human CLK3 (Homo sapiens, UniProt P49761); assay: CLK3 kinase assay (LANCE Ultra); type: biochemical; conditions: 0.5 nM CLK3, 300 μM ATP, 3 hours at 30° C.
T1 construct: purchased Thermo Fisher Scientific PV3826
Protocol: CLK3 kinase activity was measured using the LANCE® Ultra technology (PerkinElmer) essentially as recommended by the supplier. Briefly, 2.5 μL of test sample at 4× the desired final concentration in 4% DMSO were dispensed into white, low volume, round bottom, 384 well plates (Corning, cat. no. 4512). 5 μL of a mixture containing recombinant human CLK3 (Thermo Fisher Scientific, cat. no. PV3826) and the labeled peptide substrate ULight™-CREBtide (PerkinElmer, cat. no. TRF0107) prepared in 1.33× kinase buffer (Thermo Fisher Scientific, cat. no. PV3189) were then added. Finally, the reactions were started by adding 2.5 μL of a 4× solution of ATP in kinase buffer. The plates were sealed with adhesive foils and incubated for 3 hours at 30° C. in the dark. The final concentrations of CLK3, ULight™—CREBtide, and ATP were 0.5 nM, 50 nM, and 300 μM, respectively. 5 μL of 40 mM EDTA were then added to terminate the reactions. The Eu-anti-phospho-CREB antibody (PerkinElmer, cat. no. TRF0200) diluted in LANCE® detection buffer (PerkinElmer, cat. no. CR97) was then added to a final concentration of 2 nM and the reactions were incubated for 1 hour at room temperature in the dark. The signals were measured using a Synergy 4 reader (BioTek) with a 320/80 nm filter for the excitation and 620/10 nm and 665/8 nm filters for the donor and acceptor emission, respectively. […] IC50 values were calculated by fitting the concentration-response data to a sigmoidal 4-parameter logistic model.

[2] = test system: MDA-MB-231 cells; assay: MDA-MB-231 proliferation assay; type: cell-based; conditions: Homo sapiens, 72 hours, YO-PRO-1 readout
Protocol: MDA-MB-231 Proliferation Assay
MDA-MB-231 cells were cultivated in DMEM High Glucose (4.5 g/L) with L-Glutamine (BioConcept, cat. no. 1-26F03-I) supplemented with 1% Na-pyruvate (Sigma, cat. no. S8636), 1% Penicillin-Streptomycin (BioConcept, cat. no. 4-01F00H), and 10% FBS (Sigma, cat. no. F9665) using standard techniques. Cells were seeded in black, clear-bottom 384 well plates for tissue culture (Greiner Bio-One, cat. no. 781091) at a density of 750 cells per well in 20 μL medium and the plates were incubated overnight at 37° C. with 5% CO2 prior to treatment. Experimental compounds were serially diluted in DMSO to 200× the desired final concentrations. The solutions were then diluted 1:40 with culture medium and 5 μL aliquots were mixed into the wells containing the cells. The final concentration of DMSO was 0.5%. The plates were incubated for 72 hours and cell numbers were then measured using YO-PRO™-1 Iodide (ThermoFisher Scientific, cat. no. Y3603) essentially as recommended by the manufacturer. […] The plates were incubated at room temperature in the dark for 30 minutes. Fluorescence intensity signals were then measured on a Synergy 4 reader (BioTek) using 485/20 nm and 530/25 nm filters for the excitation and emission, respectively. Relative proliferation values were calculated by normalizing the raw data using DMSO-treated cells (100% proliferation) and the signals obtained from cells that were evaluated at the time of compound addition (0% proliferation). The concentration-response data were fitted to a sigmoidal 4-parameter logistic model with the maximum constrained to 100%.

T1 sequence (P49761 whole entry): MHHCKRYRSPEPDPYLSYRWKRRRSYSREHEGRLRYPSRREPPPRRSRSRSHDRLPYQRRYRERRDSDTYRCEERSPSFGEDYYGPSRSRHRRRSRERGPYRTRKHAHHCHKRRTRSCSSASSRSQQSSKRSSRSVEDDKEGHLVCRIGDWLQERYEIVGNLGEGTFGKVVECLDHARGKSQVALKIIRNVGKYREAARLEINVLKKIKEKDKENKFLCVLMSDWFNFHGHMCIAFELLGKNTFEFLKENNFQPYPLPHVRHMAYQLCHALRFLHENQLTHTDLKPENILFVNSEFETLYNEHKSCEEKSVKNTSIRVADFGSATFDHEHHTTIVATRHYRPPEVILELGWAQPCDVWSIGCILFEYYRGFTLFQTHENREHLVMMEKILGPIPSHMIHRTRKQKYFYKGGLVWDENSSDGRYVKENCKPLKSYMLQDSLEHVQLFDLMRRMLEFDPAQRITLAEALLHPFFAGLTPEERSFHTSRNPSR

Row | Compound | IC50 [1] | GI50 [2]
1 | CO/N=C1\c2cc(O[C@@H]3CC[C@@H](N)[C@@H](F)C3)ccc2-c2ncnc(N)c2C1(C)C [Example 57, (6Z)-6-methoxyimino-5,5-dimethyl-8-[-(1R,3S,4R)-4-amino-3-fluoro-cyclohexoxy]benzo[h]quinazolin-4-amine] | 2.76 nM | 207 nM
2 | CC1(C)/C(=N\OCCC#N)c2cc(O[C@H]3CC[C@H](N)CC3)ccc2-c2ncnc(N)c21 [Example 60, 3-[(E)-[4-amino-8-(trans-4-aminocyclohexoxy)-5,5-dimethyl-benzo[h]quinazolin-6-ylidene]amino]oxypropanenitrile] | 116 nM | > 2000 nM
3 | CO/N=C1\c2cc(O)ccc2-c2ncnc(N)c2C1(C)C [Example 61, (6Z)-4-amino-6-methoxyimino-5,5-dimethyl-benzo[h]quinazolin-8-ol] | 53.6 nM | > 2000 nM
4 | CO/N=C1\c2cc(OC3CCNCC3)ccc2-c2ncnc(N)c2C1(C)C [Example 66, (6Z)-6-methoxyimino-5,5-dimethyl-8-(4-piperidyloxy)benzo[h]quinazolin-4-amine] | 13 nM | 1750 nM
5 | COc1ccc2c(c1)/C(=N\OC[C@H]1CNC(=O)C1)C(C)(C)c1c(N)ncnc1-2 [Example 73, (4R)-4-[[(Z)-(4-amino-8-methoxy-5,5-dimethyl-benzo[h]quinazolin-6-ylidene)amino]oxymethyl]pyrrolidin-2-one] | 385 nM | > 2000 nM
6 | CC1(C)/C(=N/OCCC#N)c2cc(Br)ccc2-c2ncnc(N)c21 [Example 81, 3-[(Z)-(4-amino-8-bromo-5,5-dimethyl-benzo[h]quinazolin-6-ylidene)amino]oxypropanenitrile] | 15.8 nM | > 2000 nM
7 | CC1(C)/C(=N/O)c2cc(Br)ccc2-c2ncnc(N)c21 [Example 84, (Z)-4-amino-8-bromo-5,5-dimethyl-benzo[h]quinazolin-6-one oxime] | 10.6 nM | > 2000 nM
8 | CC1(C)/C(=N\O)c2cc(Br)ccc2-c2ncnc(N)c21 [Example 85, (E)-4-amino-8-bromo-5,5-dimethyl-benzo[h]quinazolin-6-one oxime] | 125 nM | > 2000 nM
9 | CC1(C)/C(=N/OC[C@@H]2CNC(=O)O2)c2cc(OCCO)ccc2-c2ncnc(N)c21 [Example 94, (5S)-5-[[(Z)-[4-amino-8-(2-hydroxyethoxy)-5,5-dimethyl-benzo[h]quinazolin-6-ylidene]amino]oxymethyl]oxazolidin-2-one] | 18.6 nM | > 2000 nM
10 | COCCO/N=C1\c2cc(N[C@H]3CC[C@H](N)CC3)ccc2-c2ncnc(N)c2C1(C)C [Example 95, (6Z)—N8-(trans-4-aminocyclohexyl)-6-(2-methoxyethoxyimino)-5,5-dimethyl-benzo[h]quinazoline-4,8-diamine] | 62.5 nM | 1040 nM
11 | CC(=O)c1ccc2c(c1)/C(=N\OC[C@@H]1CNC(=O)O1)C(C)(C)c1c(N)ncnc1-2 [Example 98, (5S)-5-[[(Z)-(8-acetyl-4-amino-5,5-dimethyl-benzo[h]quinazolin-6-ylidene)amino]oxymethyl]oxazolidin-2-one] | 26 nM | > 2000 nM
12 | COCCO/N=C1\c2cc(O[C@H]3CC[C@@H](N)CC3)ccc2-c2ncnc(N)c2C12CCCC2 [Example 100, (6Z)-8-(cis-4-aminocyclohexoxy)-6-(2-methoxyethoxyimino)spiro[benzo[h]quinazoline-5,1′-cyclopentane]-4-amine] | 3.7 nM | 10.5 nM

Next, values leading:

Row | IC50 [1] | GI50 [2] | Compound
13 | 15.6 nM | 169 nM | CC1(C)/C(=N/OCCC#N)c2cc(O[C@H]3CC[C@H](N)CC3)ccc2-c2ncnc(N)c21 [Example 55, 3-[(Z)-[4-amino-8-(trans-4-aminocyclohexoxy)-5,5-dimethyl-benzo[h]quinazolin-6-ylidene]amino]oxypropanenitrile]
14 | < 1.5 nM | 332 nM | CN1C[C@@H](CO/N=C2\c3cc(O[C@H]4CC[C@H](N)CC4)ccc3-c3ncnc(N)c3C2(C)C)OC1=O [Example 56, (5S)-5-[[(Z)-[4-amino-8-(trans-4-aminocyclohexoxy)-5,5-dimethyl-benzo[h]quinazolin-6-ylidene]amino]oxymethyl]-3-methyl-oxazolidin-2-one]
15 | 90.4 nM | > 2000 nM | COc1ccc2c(c1)/C(=N\OCCN)C(C)(C)c1c(N)ncnc1-2 [Example 58, (6Z)-6-(2-aminoethoxyimino)-8-methoxy-5,5-dimethyl-benzo[h]quinazolin-4-amine]
16 | 265 nM | > 2000 nM | COc1ccc2c(c1)/C(=N\OCCCN)C(C)(C)c1c(N)ncnc1-2 [Example 59, (6Z)-6-(3-aminopropoxyimino)-8-methoxy-5,5-dimethyl-benzo[h]quinazolin-4-amine]
17 | 79.3 nM | > 2000 nM | COc1ccc2c(c1)/C(=N\OC[C@@H]1CNC(=O)C1)C(C)(C)c1c(N)ncnc1-2 [Example 72, (4S)-4-[[(Z)-(4-amino-8-methoxy-5,5-dimethyl-benzo[h]quinazolin-6-ylidene)amino]oxymethyl]pyrrolidin-2-one]
18 | 3.4 nM | 472 nM | CO/N=C1\c2cc(C[C@H]3CC[C@@H](N)CC3)ccc2-c2ncnc(N)c2C1(C)C [Example 75, (6Z)-8-[(cis-4-aminocyclohexyl)methyl]-6-methoxyimino-5,5-dimethyl-benzo[h]quinazolin-4-amine]
19 | < 41 nM | > 2000 nM | COc1ccc2c(c1)/C(=N\OC[C@H]1CC(=O)N(C)C1)C(C)(C)c1c(N)ncnc1-2 [Example 76, (4S)-4-[[(Z)-(4-amino-8-methoxy-5,5-dimethyl-benzo[h]quinazolin-6-ylidene)amino]oxymethyl]-1-methyl-pyrrolidin-2-one]
20 | 84.8 nM | > 2000 nM | CO/N=C1\c2cc(OC)cc(F)c2-c2ncnc(N)c2C1(C)C [Example 77, (6Z)-10-fluoro-8-methoxy-6-methoxyimino-5,5-dimethyl-benzo[h]quinazolin-4-amine]
21 | 66.3 nM | > 2000 nM | C[C@@H](O)CO/N=C1\c2cc(O[C@H]3CC[C@H](N)CC3)ccc2-c2ncnc(N)c2C1(C)C [Example 78, (2R)-1-[(Z)-[4-amino-8-(trans-4-aminocyclohexoxy)-5,5-dimethyl-benzo[h]quinazolin-6-ylidene]amino]oxypropan-2-ol]
22 | 51.5 nM | > 2000 nM | COCCO/N=C1\c2cc(Br)ccc2-c2ncnc(N)c2C1(C)C [Example 80, (6Z)-8-bromo-6-(2-methoxyethoxyimino)-5,5-dimethyl-benzo[h]quinazolin-4-amine]
23 | 63 nM | > 2000 nM | CC1(C)/C(=N/OCCO)c2cc(Br)ccc2-c2ncnc(N)c21 [Example 86, 2-[(Z)-(4-amino-8-bromo-5,5-dimethyl-benzo[h]quinazolin-6-ylidene)amino]oxyethanol]
24 | 142 nM | > 2000 nM | CC1(C)/C(=N/OC[C@@H]2CNC(=O)O2)c2cc(C#N)ccc2-c2ncnc(N)c21 [Example 92, (6Z)-4-amino-5,5-dimethyl-6-[[(5S)-2-oxooxazolidin-5-yl]methoxyimino]benzo[h]quinazoline-8-carbonitrile]
25 | 43.6 nM | 670 nM | COCCO/N=C1\c2cc(N[C@H]3CC[C@@H](N)CC3)ccc2-c2ncnc(N)c2C1(C)C [Example 96, (6Z)—N8-(cis-4-aminocyclohexyl)-6-(2-methoxyethoxyimino)-5,5-dimethyl-benzo[h]quinazoline-4,8-diamine]

Source: US12583825B2, “Benzo[h]quinazolin-4-amine and thieno[3,2-h]quinazolin-4-amine derivatives for the treatment of cancer” (Redona Therapeutics, Inc., priority 2020, dated 2026)
